This passage reports EC50 results from US9695171B2, “3,4-disubstituted-1 H-pyrrolo[2,3-b]pyridines and 4,5-disubstituted-7H-pyrrolo[2,3-c]pyridazines as LRRK2 inhibitors” (Pfizer Inc., priority 2013, dated 2017).

A word on the EC50: it is the concentration at which the effect is half-maximal.

For the test, the target named is T1, GST-tagged truncated LRRK2 (Homo sapiens, UniProt Q5S007).
T1 construct: GST-tagged truncated LRRK2 from Invitrogen (Cat # PV4874); GST; purchased Invitrogen PV4874
Put plainly: LRRK2 kinase assay (Lantha Screen). Format: biochemical. The settings on record: 1 mM ATP (head); a = geometric mean of >=4 determinations, b = single determination; read-out: LRRK2 LANTHA EC50 at 1 mM ATP; Geometric mean of 2-3 determinations unless otherwise indicated. The method, then:
LRRK2 kinase activity was measured using Lantha Screen technology from Invitrogen. GST-tagged truncated LRRK2 from Invitrogen (Cat # PV4874) was incubated with a fluorescein-labeled peptide substrate based upon ezrin/radixin/moesin (ERM), also known as LRRKtide (Invitrogen cat # PR8976A), in the presence of a dose response of compound. Upon completion, the assay was stopped and detected with a terbium labeled anti-phospho-ERM antibody (Invitrogen, cat # PR8975A). […] The compound dose response was prepared by diluting compound to a top concentration of 3.16 mM in 100% DMSO and serial diluted by half-log in DMSO 11 times. Aliquots (3.5 μL) of the 100% DMSO dose response were mixed with 46.5 μL water then 1 μL of this mixture was added to the 3 μL substrate mix in the 384-well plate. The kinase reaction was started with 3 μL of a working solution of LRRK2 enzyme at a concentration of 4 μg/mL. […] The reaction was allowed to progress at room temperature for two hours and then stopped with the addition of 7 μL of detection buffer (20 mM Tris pH 7.6, 0.01% NP-40, 0.02% NaN3, 6 mM EDTA with 2 nM terbium labeled anti-phospho-ERM). After an incubation of 1 hour at room temperature, the plate was read on an Envision with an excitation wavelength of 340 nm and a reading emission at both 520 nm and 495 nm. The ratio of the 520 nm and 495 nm emission was used to analyze the data.

T1 sequence (Q5S007 970-2527 limits assumed): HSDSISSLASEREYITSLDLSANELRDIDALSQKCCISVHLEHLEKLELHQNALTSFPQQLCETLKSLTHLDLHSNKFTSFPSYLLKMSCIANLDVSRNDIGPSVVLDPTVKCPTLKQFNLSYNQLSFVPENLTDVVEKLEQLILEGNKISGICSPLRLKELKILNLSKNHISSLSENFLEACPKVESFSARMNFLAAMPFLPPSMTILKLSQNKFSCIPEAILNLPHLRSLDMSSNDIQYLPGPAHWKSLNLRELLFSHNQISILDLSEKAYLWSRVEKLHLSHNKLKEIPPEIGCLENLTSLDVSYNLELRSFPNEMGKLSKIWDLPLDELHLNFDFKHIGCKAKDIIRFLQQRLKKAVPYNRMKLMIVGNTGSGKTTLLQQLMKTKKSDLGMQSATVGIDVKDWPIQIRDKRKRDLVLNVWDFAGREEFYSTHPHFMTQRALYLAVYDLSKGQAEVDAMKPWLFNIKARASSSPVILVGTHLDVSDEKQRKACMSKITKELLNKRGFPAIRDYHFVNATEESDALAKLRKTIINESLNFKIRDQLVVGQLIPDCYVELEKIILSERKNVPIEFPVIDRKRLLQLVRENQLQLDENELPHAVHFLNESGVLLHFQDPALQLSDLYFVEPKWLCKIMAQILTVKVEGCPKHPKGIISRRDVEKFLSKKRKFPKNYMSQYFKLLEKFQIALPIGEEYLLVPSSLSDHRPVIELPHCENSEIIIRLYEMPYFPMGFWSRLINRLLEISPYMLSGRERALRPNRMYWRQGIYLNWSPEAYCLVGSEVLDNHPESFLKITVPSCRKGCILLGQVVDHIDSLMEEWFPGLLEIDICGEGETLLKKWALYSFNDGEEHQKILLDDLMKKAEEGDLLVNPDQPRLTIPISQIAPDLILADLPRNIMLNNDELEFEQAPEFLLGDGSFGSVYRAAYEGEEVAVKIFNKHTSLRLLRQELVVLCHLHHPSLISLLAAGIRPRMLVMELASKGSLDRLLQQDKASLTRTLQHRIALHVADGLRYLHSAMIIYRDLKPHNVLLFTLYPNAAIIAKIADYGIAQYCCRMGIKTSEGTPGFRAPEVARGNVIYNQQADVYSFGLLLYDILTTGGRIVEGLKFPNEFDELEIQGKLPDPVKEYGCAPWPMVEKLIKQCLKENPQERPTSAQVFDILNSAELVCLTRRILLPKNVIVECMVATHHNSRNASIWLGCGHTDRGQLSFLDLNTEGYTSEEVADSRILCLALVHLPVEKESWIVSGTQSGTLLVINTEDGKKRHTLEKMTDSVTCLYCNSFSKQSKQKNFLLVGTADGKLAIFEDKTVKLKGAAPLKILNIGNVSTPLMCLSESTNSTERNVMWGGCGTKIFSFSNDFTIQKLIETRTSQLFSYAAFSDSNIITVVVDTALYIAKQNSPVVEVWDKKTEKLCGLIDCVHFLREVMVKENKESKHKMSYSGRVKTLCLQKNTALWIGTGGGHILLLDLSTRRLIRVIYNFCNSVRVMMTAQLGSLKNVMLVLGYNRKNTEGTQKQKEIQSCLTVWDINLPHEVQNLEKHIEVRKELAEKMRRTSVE

On to `COC1CCCN(c2ccnc3[nH]cc(-c4cccc(C#N)c4)c23)C1` (stereo not drawn) [Example 71, 3-[4-(3-methoxypiperidin-1-yl)-1H-pyrrolo[2,3-b]pyridin-3-yl]benzonitrile], for which the EC50 came to 95.8 nM. Take `N#Cc1cccc(-c2c[nH]c3nccc(N4C[C@H]5C[C@@H](C4)O5)c23)c1` [Example 72, 3-[4-(6-oxa-3-azabicyclo[3.1.1]hept-3-yl)-1H-pyrrolo[2,3-b]pyridin-3-yl]benzonitrile]: the concentration for a half-maximal effect (EC50) is 68.3 nM. On to `N#Cc1cccc(-c2c[nH]c3nccc(N4C[C@@H](F)[C@H](F)C4)c23)c1` [Example 73, 3-{4-[(3R,4R)-3,4-difluoropyrrolidin-1-yl]-1H-pyrrolo[2,3-b]pyridin-3-yl}benzonitrile], for which the EC50 turned out to be 44.4 nM. Under `N#Cc1cccc(-c2c[nH]c3nccc(N4CCC(F)CC4)c23)c1` [Example 74, 3-[4-(4-fluoropiperidin-1-yl)-1H-pyrrolo[2,3-b]pyridin-3-yl]benzonitrile] stands 39 nM. As for `N#Cc1cccc(-c2c[nH]c3nccc(N4CC[C@@H](F)C4)c23)c1` [Example 75, 3-{4-[(3R)-3-fluoropyrrolidin-1-yl]-1H-pyrrolo[2,3-b]pyridin-3-yl}benzonitrile], the EC50 worked out at 38.7 nM. Under `C[C@@H]1CN(c2ccnc3[nH]cc(-c4cccc(C#N)c4)c23)CCO1` [Example 76, 3-{4-[(2R)-2-methylmorpholin-4-yl]-1H-pyrrolo[2,3-b]pyridin-3-yl}benzonitrile] stands 30.6 nM; under `N#Cc1cccc(-c2c[nH]c3nccc(N4CCCC4)c23)c1` [Example 77, 3-[4-(pyrrolidin-1-yl)-1H-pyrrolo[2,3-b]pyridin-3-yl]benzonitrile], 14.1 nM.

As to `N#Cc1cccc(-c2c[nH]c3nccc(N4CC[C@H](F)C4)c23)c1` [Example 78, 3-{4-[(3S)-3-fluoropyrrolidin-1-yl]-1H-pyrrolo[2,3-b]pyridin-3-yl}benzonitrile], the concentration for a half-maximal effect (EC50) stood at 24 nM.

Turning to `N#Cc1cccc(-c2c[nH]c3nccc(N4CCCC(F)(F)C4)c23)c1` [Example 79, 3-[4-(3,3-difluoropiperidin-1-yl)-1H-pyrrolo[2,3-b]pyridin-3-yl]benzonitrile], the EC50 worked out at 99.2 nM. Under `C[C@H]1CN(c2ccnc3[nH]cc(-c4cccc(C#N)c4)c23)CCO1` [Example 80, 3-{4-[(2S)-2-methylmorpholin-4-yl]-1H-pyrrolo[2,3-b]pyridin-3-yl}benzonitrile] stands 10.5 nM; under `O=c1cc(-c2c[nH]c3nccc(N4CCOCC4)c23)cc[nH]1` [Example 81, 4-[4-(morpholin-4-yl)-1H-pyrrolo[2,3-b]pyridin-3-yl]pyridin-2(1H)-one], 11.1 nM. For the compound `COC(=O)c1cnc2[nH]cc(-c3cccc(C#N)c3)c2c1N1CCOCC1` [Example 82, methyl 3-(3-cyanophenyl)-4-(morpholin-4-yl)-1H-pyrrolo[2,3-b]pyridine-5-carboxylate], the EC50 was determined as 12.3 nM. Under `N#CCc1cnc2[nH]cc(-c3cccc(C#N)c3)c2c1N1CCOCC1` [Example 83, 3-[5-(cyanomethyl)-4-(morpholin-4-yl)-1H-pyrrolo[2,3-b]pyridin-3-yl]benzonitrile] stands 106 nM.

Take `COCc1cnc2[nH]cc(-c3cccc(C#N)c3)c2c1N1CCOCC1` [Example 84, 3-[5-(methoxymethyl)-4-(morpholin-4-yl)-1H-pyrrolo[2,3-b]pyridin-3-yl]benzonitrile]: the 50% effective concentration (EC50) is 63.4 nM.

On to `Cn1cc(-c2c[nH]c3nccc(N4CCOCC4)c23)cc1C(N)=O` [Example 85, 1-methyl-4-[4-(morpholin-4-yl)-1H-pyrrolo[2,3-b]pyridin-3-yl]-1H-pyrrole-2-carboxamide], for which the EC50 was 21.7 nM. The result for `N#Cc1cc(-c2c[nH]c3nccc(N4CCOCC4)c23)c[nH]1` [Example 86, 4-[4-(morpholin-4-yl)-1H-pyrrolo[2,3-b]pyridin-3-yl]-1H-pyrrole-2-carbonitrile] reads 2.75 nM; that for `Cc1[nH]c2nccc(N3CCOCC3)c2c1-c1cc(C#N)n(C)c1` [Example 87, 1-methyl-4-[2-methyl-4-(morpholin-4-yl)-1H-pyrrolo[2,3-b]pyridin-3-yl]-1H-pyrrole-2-carbonitrile], 5.46 nM. Under `N#Cc1cccc(-c2c[nH]c3nccc(-c4ccncc4)c23)c1` [Example 88, 3-[4-(pyridin-4-yl)-1H-pyrrolo[2,3-b]pyridin-3-yl]benzonitrile] stands 9.93 nM; under `Cn1cc(-c2c[nH]c3nccc(-c4ccccc4)c23)cn1` [Example 89, 3-(1-methyl-1H-pyrazol-4-yl)-4-phenyl-1H-pyrrolo[2,3-b]pyridine], 13.7 nM. In the case of `N#Cc1cccc(-c2c[nH]c3nncc(N4CCOCC4)c23)c1` [Example 90, 3-[4-(morpholin-4-yl)-7H-pyrrolo[2,3-c]pyridazin-5-yl]benzonitrile], the 50% effective concentration (EC50) turned out to be 42.2 nM.

On to `N#Cc1cccc(-c2c[nH]c3nccc(-c4cccc(C(=O)NC5CC5)c4)c23)c1` [Example 91, 3-[3-(3-cyanophenyl)-1H-pyrrolo[2,3-b]pyridin-4-yl]-N-cyclopropylbenzamide], for which the EC50 worked out at 43.4 nM.

Take `N#Cc1cccc(-c2c[nH]c3nncc(N4CCOCC4)c23)c1F` [Example 92, 2-fluoro-3-[4-(morpholin-4-yl)-7H-pyrrolo[2,3-c]pyridazin-5-yl]benzonitrile]: the half-maximal effective concentration (EC50) amounted to 43.7 nM. The result for `N#Cc1cccc(-c2c[nH]c3nccc(-c4cccnc4)c23)c1` [Example 93, 3-[4-(pyridin-3-yl)-1H-pyrrolo[2,3-b]pyridin-3-yl]benzonitrile] reads 45.6 nM; that for `Cn1cc(-c2c[nH]c3nccc(-c4ccc(F)c(F)c4)c23)cn1` [Example 94, 4-(3,4-difluorophenyl)-3-(1-methyl-1H-pyrazol-4-yl)-1H-pyrrolo[2,3-b]pyridine], 45.6 nM; that for `Cn1cc(-c2c[nH]c3nccc(-c4cc(F)ccc4F)c23)cn1` [Example 95, 4-(2,5-difluorophenyl)-3-(1-methyl-1H-pyrazol-4-yl)-1H-pyrrolo[2,3-b]pyridine], 49.5 nM. Under `Cn1cc(-c2c[nH]c3nccc(-c4cccc(F)c4F)c23)cn1` [Example 96, 4-(2,3-difluorophenyl)-3-(1-methyl-1H-pyrazol-4-yl)-1H-pyrrolo[2,3-b]pyridine] stands 58.9 nM. Consider `Cn1cc(-c2c[nH]c3nccc(-c4cccc(Cl)c4)c23)cn1` [Example 97, 4-(3-chlorophenyl)-3-(1-methyl-1H-pyrazol-4-yl)-1H-pyrrolo[2,3-b]pyridine], for which the EC50 amounted to 63.1 nM. The result for `COc1cccc(-c2ccnc3[nH]cc(-c4cnn(C)c4)c23)c1F` [Example 98, 4-(2-fluoro-3-methoxyphenyl)-3-(1-methyl-1H-pyrazol-4-yl)-1H-pyrrolo[2,3-b]pyridine] reads 85.9 nM; that for `CNS(=O)(=O)c1cccc(-c2ccnc3[nH]cc(-c4cccc(C#N)c4)c23)c1` [Example 99, 3-[3-(3-cyanophenyl)-1H-pyrrolo[2,3-b]pyridin-4-yl]-N-methylbenzenesulfonamide], 92.5 nM; that for `COc1ccc(F)c(F)c1-c1c[nH]c2ncc(C#N)c(C3CC3)c12` [Example 100, 4-cyclopropyl-3-(2,3-difluoro-6-methoxyphenyl)-1H-pyrrolo[2,3-b]pyridine-5-carbonitrile], 99.2 nM.
